In paper PMC11649115, “In vitro safety evaluation of dopamine D3R antagonist, R-VK4-116, as a potential medication for the treatment of opioid use disorder” (PLOS ONE, 2024):

Key:
OATP1B3 = target: T1, OATP1B3 (Homo sapiens, UniProt Q9NPD5); test: Transporter mediated assay (substrate/inhibitor), MDCK-II cells; type: in vitro ADME
T1 construct: expressed in transfected cells; host or cells: MDCK-II cells
T1 sequence (Q9NPD5 1-702): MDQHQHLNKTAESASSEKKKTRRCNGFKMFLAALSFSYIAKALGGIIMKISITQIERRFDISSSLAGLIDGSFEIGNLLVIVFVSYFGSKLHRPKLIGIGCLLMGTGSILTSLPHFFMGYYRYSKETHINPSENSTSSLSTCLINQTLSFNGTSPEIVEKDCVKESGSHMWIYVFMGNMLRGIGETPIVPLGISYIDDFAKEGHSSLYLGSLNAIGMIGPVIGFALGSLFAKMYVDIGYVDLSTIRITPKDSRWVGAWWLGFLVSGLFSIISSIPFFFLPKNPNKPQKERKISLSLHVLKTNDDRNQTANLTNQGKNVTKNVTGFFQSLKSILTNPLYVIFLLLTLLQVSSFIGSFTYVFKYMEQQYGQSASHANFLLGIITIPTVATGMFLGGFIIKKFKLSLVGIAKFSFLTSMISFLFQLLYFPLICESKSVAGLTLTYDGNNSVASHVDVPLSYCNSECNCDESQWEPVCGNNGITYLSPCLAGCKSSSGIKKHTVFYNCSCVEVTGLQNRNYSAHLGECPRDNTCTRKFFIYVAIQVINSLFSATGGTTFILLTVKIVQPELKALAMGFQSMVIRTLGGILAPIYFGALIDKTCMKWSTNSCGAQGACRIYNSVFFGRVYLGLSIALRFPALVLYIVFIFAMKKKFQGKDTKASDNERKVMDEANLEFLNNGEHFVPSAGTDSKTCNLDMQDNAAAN
Procedure: (§1) The MDCK-II cells were treated to express the transporter of interest. The transport of each probe substrate was determined by radiometric detection (Fig 1 in S1 File). […] For the uptake assay, the net transporter-mediated uptake-rate (V) of the substrate by each SLC transporter was calculated as follows: Transporter–mediatedupdaterate(pmol/min/cm^2)=(Cellularaccumulationincellsexpressingthetransporter)−(Meancellularaccumulationincontrolcells)/Surfacearea×incubationtime
(§2) Fold of activity and percent inhibition were determined as follows: Foldofactivity=(Meanuptakerate)transporterexpressingcells/(Meanuptakerate)controlcells Percentinhibition=100−100×(Transport‐mediatedupdaterate)withinhibitor/(Transport‐mediatedupdaterate)vehiclecontrol

MATE1 = target: T2, MATE1 (Homo sapiens, UniProt Q96FL8); test: as above; type: in vitro ADME
T2 construct: expressed in transfected cells; host or cells: MDCK-II cells
T2 sequence (Q96FL8 1-570): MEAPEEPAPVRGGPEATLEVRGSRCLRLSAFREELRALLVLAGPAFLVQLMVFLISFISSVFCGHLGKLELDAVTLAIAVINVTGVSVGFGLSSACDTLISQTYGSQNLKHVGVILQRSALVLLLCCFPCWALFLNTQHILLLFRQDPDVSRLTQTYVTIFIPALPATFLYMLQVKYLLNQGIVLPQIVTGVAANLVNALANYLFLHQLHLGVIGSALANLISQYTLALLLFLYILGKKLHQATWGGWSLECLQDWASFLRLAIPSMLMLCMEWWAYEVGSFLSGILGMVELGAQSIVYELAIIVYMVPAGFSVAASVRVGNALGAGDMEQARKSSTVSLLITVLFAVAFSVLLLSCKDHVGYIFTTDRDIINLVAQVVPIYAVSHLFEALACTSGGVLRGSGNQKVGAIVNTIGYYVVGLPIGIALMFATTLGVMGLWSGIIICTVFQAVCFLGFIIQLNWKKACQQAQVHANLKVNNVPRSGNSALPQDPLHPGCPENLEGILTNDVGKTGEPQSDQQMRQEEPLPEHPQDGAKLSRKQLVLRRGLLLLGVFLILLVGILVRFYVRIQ
Procedure: as §1, §2

[1] = Metabolic stability in hepatocyte; conditions: Beagle, dog, hepatocytes in suspension
Procedure: CYP3A4 substrate Midazolam (10 μM) was prepared and incubated in the same manner. […] In addition, in vitro half-life (t1/2, min) and intrinsic clearance (CLint, μl/min/10^6 cells) were calculated [10, 11].

Structure (SMILES): CCc1cc(Cl)c(OC)c(N2CCN(CC(O)CCNC(=O)c3cc4ccccc4[nH]3)CC2)c1 (stereo not drawn) [R-VK4-116, N-(4-(4-(3-chloro-5-ethyl-2-methoxyphenyl)piperazin-1-yl)-3-hydroxybutyl)-1H-indole-2-carboxamide]
- fold difference in mean uptake rate (substrate test) (OATP1B3; OATP1B3, 1 μM, transporter cells vs control cells): < 2 fold
- Inhibition (%) (OATP1B3; OATP1B3, 0.1% BSA, 10 μM): no statistically significant inhibition
- inhibition at 10 µM (OATP1B3; human, polarized monolayer of MDCK-II cells expressing OATP1B3, OATP1B3, 0.1% BSA, 10 μM): 5.29 ± 10.7%
- fold difference in mean uptake rate (substrate test) (MATE1; MATE1, 1 μM, transporter cells vs control cells): < 2 fold
- inhibition at 10 µM (MATE1; human, polarized monolayer of MDCK-II cells expressing MATE1, MATE1, 0.1% BSA, 10 μM): 19.4 ± 7.57%
- half-life at 0.5 μM [1]: 91.2 min
- half-life at 10 μM [1]: 347 min
- hepatocyte CLint at 0.5 μM [1]: 15.2 µL/min/1e6 cells
- hepatocyte CLint at 10 μM [1]: 4 µL/min/1e6 cells
